Laboratory results as given in ChEMBL document CHEMBL1201862, “PubChem BioAssay data set” (2004).
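Interpolation was linear, between the two tested concentrations surrounding the appropriate level; five concentrations were tested over 48 hours in 96-well plates. The concentration for 50% growth inhibition is given as GI50.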 Calls of active or inactive are those of the source. No stated cut-off is given here; in the data, active = GI50 up to about 1.1 µM and inactive = higher.

How the values were obtained:
Experiment in all cases: NCI tumour cell line growth inhibition, 48 h
[1] = tested on: CAKI-1
[2] = tested on: CCRF-CEM
[3] = tested on: COLO 205
[4] = tested on: HCT-116
[5] = tested on: KM12
[6] = tested on: LOX IMVI
[7] = tested on: MOLT-4
[8] = tested on: NCI-H460
[9] = tested on: NCI-H522
[10] = tested on: OVCAR-4
[11] = tested on: OVCAR-5
[12] = tested on: RXF 393
[13] = tested on: SNB-75
[14] = tested on: TK-10
[15] = tested on: U-251
[16] = tested on: UACC-62
[17] = tested on: UO-31
[18] = tested on: MCF7
[19] = tested on: MDA-MB-231
[20] = tested on: PC-3

SMILES	GI50 [1]	GI50 [2]	GI50 [3]	GI50 [4]	GI50 [5]	GI50 [6]	GI50 [7]	GI50 [8]	GI50 [9]	GI50 [10]	GI50 [11]	GI50 [12]	GI50 [13]	GI50 [14]	GI50 [15]	GI50 [16]	GI50 [17]	GI50 [18]	GI50 [19]	GI50 [20]
CCCCCCCCCCCCC(=O)CCCCC(=O)O	32.5 µM (inactive)	33.7 µM (inactive)	16.7 µM (inactive)	20.6 µM (inactive)	15.8 µM (inactive)	21 µM (inactive)	14.6 µM (inactive)	19.4 µM (inactive)	20.3 µM (inactive)	58.5 µM (inactive)	18.2 µM (inactive)	34.9 µM (inactive)	23.4 µM (inactive)	44.9 µM (inactive)	24.4 µM (inactive)	17.9 µM (inactive)	23.9 µM (inactive)			
OC(Cn1cncn1)(Cn1cncn1)c1ccc(Cl)cc1Cl	> 100 µM (inactive)	> 100 µM (inactive)	> 100 µM (inactive)	> 100 µM (inactive)	> 100 µM (inactive)	> 100 µM (inactive)	> 100 µM (inactive)	> 100 µM (inactive)	> 100 µM (inactive)	> 100 µM (inactive)	> 100 µM (inactive)	> 100 µM (inactive)	> 100 µM (inactive)	> 100 µM (inactive)	> 100 µM (inactive)	> 100 µM (inactive)	> 100 µM (inactive)			
COC(=O)C1=C(O)C(C(=O)OC)[C@@]2(O)[C@@H](C(=O)OC)[C@H](C)[C@@H](C)[C@@H]1[C@@H]2C(=O)OC (stereo not given in full)		60.5 µM (inactive)		66.1 µM (inactive)	34.8 µM (inactive)	51.9 µM (inactive)	> 100 µM (inactive)	44.9 µM (inactive)	26.9 µM (inactive)		> 100 µM (inactive)	13.2 µM (inactive)	57.7 µM (inactive)	> 100 µM (inactive)	86.5 µM (inactive)	55.5 µM (inactive)	38.5 µM (inactive)	38.1 µM (inactive)	> 100 µM (inactive)	
COc1cc2c(cc1OC)[C@@H](C(O)c1ccccc1)NCC2 (stereo not given in full)	> 100 µM (inactive)	> 100 µM (inactive)	> 100 µM (inactive)	> 100 µM (inactive)	> 100 µM (inactive)	> 100 µM (inactive)	> 100 µM (inactive)	> 100 µM (inactive)	> 100 µM (inactive)	> 100 µM (inactive)	> 100 µM (inactive)	> 100 µM (inactive)	54.6 µM (inactive)	> 100 µM (inactive)	> 100 µM (inactive)	> 100 µM (inactive)	> 100 µM (inactive)			
COc1cc2c3c(c1OC)Oc1ccc(cc1)CC1c4c(cc(OC)c(OC)c4Oc4ccc(cc4)CC3N(C)CC2)CCN1C (stereo not given)	90.6 µM (inactive)	18.5 µM (inactive)	13.5 µM (inactive)	13.8 µM (inactive)	34.4 µM (inactive)	17.7 µM (inactive)	21.8 µM (inactive)	18.7 µM (inactive)	12.7 µM (inactive)	13.3 µM (inactive)	56.6 µM (inactive)	12.9 µM (inactive)	21.8 µM (inactive)	22.1 µM (inactive)	15.8 µM (inactive)	19 µM (inactive)	15 µM (inactive)			
CCOC(=O)C1=C(Nc2ccc(Cl)c(Cl)c2)OC/C1=N\NC(=O)Cc1ccccc1	> 100 µM (inactive)	> 100 µM (inactive)	> 100 µM (inactive)	99.8 µM (inactive)	> 100 µM (inactive)	> 100 µM (inactive)	61.1 µM (inactive)	> 100 µM (inactive)	> 100 µM (inactive)	> 100 µM (inactive)	> 100 µM (inactive)	> 100 µM (inactive)	> 100 µM (inactive)	> 100 µM (inactive)	> 100 µM (inactive)	> 100 µM (inactive)	56.2 µM (inactive)			
CCCCCOc1ccc(/C=N\c2ccc(-c3ccc(/N=C\c4ccc(OCCCCC)cc4)c(OC)c3)cc2OC)cc1		> 100 µM (inactive)	> 100 µM (inactive)	> 100 µM (inactive)	> 100 µM (inactive)	> 100 µM (inactive)	> 100 µM (inactive)	> 100 µM (inactive)	> 100 µM (inactive)	> 31.6 µM (inactive)	> 100 µM (inactive)	> 100 µM (inactive)	46.9 µM (inactive)		> 100 µM (inactive)	> 100 µM (inactive)	> 80.2 µM (inactive)	> 100 µM (inactive)		
Cc1ccc(C(=O)Nc2ncn(C3CC(O)C(CO)O3)c(=O)n2)cc1 (stereo not given)	> 100 µM (inactive)	> 100 µM (inactive)	> 100 µM (inactive)	> 100 µM (inactive)	> 100 µM (inactive)	> 100 µM (inactive)	> 29.6 µM (inactive)	> 100 µM (inactive)	> 100 µM (inactive)	> 100 µM (inactive)	> 100 µM (inactive)	> 100 µM (inactive)	> 52.6 µM (inactive)		> 100 µM (inactive)	> 100 µM (inactive)	> 100 µM (inactive)	> 100 µM (inactive)		
CC[C@@]1(O)C[C@H](OC2CC(N(C)C)C(OC3CC(O)C(OC4CC(O)C(O)C(C)O4)C(C)O3)C(C)O2)c2c(cc3c(c2O)C(=O)c2c(O)ccc(O)c2C3=O)[C@H]1C(=O)OC (stereo not given in full)	0.0082 µM (active)	< 0.0181 µM (active)	0.0131 µM (active)	0.00507 µM (active)	< 0.0174 µM (active)	0.163 µM (active)	0.0141 µM (active)	0.00577 µM (active)	0.0343 µM (active)	0.0371 µM (active)	0.254 µM (active)	0.0356 µM (active)	0.0548 µM (active)		0.084 µM (active)	0.017 µM (active)	0.112 µM (active)	0.0156 µM (active)		
O=P1(O)C=CC2(CCCC2)O1			> 100 µM (inactive)	> 100 µM (inactive)	> 100 µM (inactive)	> 100 µM (inactive)		> 100 µM (inactive)	> 100 µM (inactive)	> 100 µM (inactive)	> 100 µM (inactive)		> 100 µM (inactive)	> 100 µM (inactive)	> 100 µM (inactive)	> 100 µM (inactive)		> 100 µM (inactive)		> 100 µM (inactive)
CC(=O)NNc1nc(C)c(C(=O)NNC(=O)C(=O)Nc2c(C)cccc2C(C)(C)C)s1	49.5 µM (inactive)	16.2 µM (inactive)	46.8 µM (inactive)	75.2 µM (inactive)	> 100 µM (inactive)	57.8 µM (inactive)	41.1 µM (inactive)	52.2 µM (inactive)	20.9 µM (inactive)	40.3 µM (inactive)	> 100 µM (inactive)	> 100 µM (inactive)	> 100 µM (inactive)	> 100 µM (inactive)	58.7 µM (inactive)	97.9 µM (inactive)	47.8 µM (inactive)			
Cc1c2c(c(C)c3c4c(oc13)CCCC4)C=NCC2	13.2 µM (inactive)	12.1 µM (inactive)	19.5 µM (inactive)	14.9 µM (inactive)	16.1 µM (inactive)	20.5 µM (inactive)	7.89 µM (inactive)	15.8 µM (inactive)	16 µM (inactive)	22.3 µM (inactive)	16.8 µM (inactive)	3.66 µM (inactive)	15.8 µM (inactive)	12.1 µM (inactive)	13.1 µM (inactive)	15 µM (inactive)	13.1 µM (inactive)	16.1 µM (inactive)	16.4 µM (inactive)	
c1ccc2c(c1)NC(C1OC3CCCN3C1C1Nc3ccccc3S1)S2 (stereo not given)	> 100 µM (inactive)	35.8 µM (inactive)	83.6 µM (inactive)	55.3 µM (inactive)	46.5 µM (inactive)		29.9 µM (inactive)	41.2 µM (inactive)	28.2 µM (inactive)	63.4 µM (inactive)	> 100 µM (inactive)	21.2 µM (inactive)	69.7 µM (inactive)	> 100 µM (inactive)	80.2 µM (inactive)	79.8 µM (inactive)	55.1 µM (inactive)	44.2 µM (inactive)		44.1 µM (inactive)
O=c1c2cccnc2ncn1CCCN1CCCCC1	> 100 µM (inactive)	> 100 µM (inactive)	> 100 µM (inactive)	> 100 µM (inactive)	> 100 µM (inactive)	> 100 µM (inactive)	> 100 µM (inactive)	> 100 µM (inactive)	> 100 µM (inactive)	> 100 µM (inactive)	> 100 µM (inactive)	> 100 µM (inactive)	> 100 µM (inactive)	> 100 µM (inactive)	> 100 µM (inactive)	> 100 µM (inactive)	> 100 µM (inactive)			
CCOC(=O)C(NC(=O)Nc1ccccc1F)(OC)C(F)(F)F (stereo not given)	44.5 µM (inactive)	> 100 µM (inactive)	> 100 µM (inactive)	> 100 µM (inactive)		> 100 µM (inactive)	> 100 µM (inactive)				> 100 µM (inactive)	> 100 µM (inactive)	> 100 µM (inactive)	> 100 µM (inactive)	> 100 µM (inactive)		> 100 µM (inactive)			> 100 µM (inactive)
CC(=O)Nc1ccc(/C=C/c2ccc(NC(=O)Nc3ccc(/C=C/c4ccc(NC(C)=O)cc4S(=O)(=O)O)c(S(=O)(=O)O)c3)cc2S(=O)(=O)O)c(S(=O)(=O)O)c1		> 100 µM (inactive)	> 100 µM (inactive)	> 100 µM (inactive)	> 100 µM (inactive)	> 94.2 µM (inactive)	> 100 µM (inactive)	> 100 µM (inactive)	> 100 µM (inactive)	> 100 µM (inactive)	> 100 µM (inactive)	> 100 µM (inactive)	53.8 µM (inactive)		> 100 µM (inactive)	> 100 µM (inactive)	> 100 µM (inactive)	> 100 µM (inactive)		
